According to US20220000941A1, “MINERAL ELEMENTS COMPRISING HAFNIA ALVEI COMPOSITIONS” (TARGEDYS, priority 2019, published 2022):

Assays:
Hafnia alvei 4597 [1] = assay: Flow cytometry of cell integrity (propidium iodide and Syto 24), intact cells; format: cell-based; settings: zinc comprising media, flow cytometry at 24 h
From the text: Samples of the culture media 1-6 were further assessed for the cell integrity by means of flow cytometry using as markers propidium iodide and Syto® 24. The flow cytometry measured the number of intact cells opposed to the population of cells whose cellular membrane integrity had been compromised.
(§1) The development of Hafnia alvei in this new medium was monitored by optical densitometry and flow cytometry. LB medium with no added zinc or chrome was used as a control.

Hafnia alvei 4597 [2] = assay: Turbidity of Hafnia alvei culture media by optical densitometry (OD at 640 nm); format: cell-based; settings: mineral source in LB medium, monitored during 48 hours
Description: The concentration of the minerals were based on their estimated concentration in […] (typical glass of water). However, in view of observing the Hafnia alvei strain development, the zinc and chrome sources were solubilized in a Luria Browth medium (LB). The composition of LB is as follows: Tryptone 10 g/L, yeast extract 5 g/L (Biokar Diagnostic®) and NaCl 0.5 g/L (Fluka®).
Hafnia alvei 4597 was incubated with Test medial-6 of example 1 and the turbidity of the culture media was monitored during 48 hours by means of optical densitometry (OD at 640 nm).
as §1

Row | SMILES | development inhibition compared to the control medium (Hafnia alvei 4597 [1]) | turbidity of the culture medium (OD at 640 nm) compared to control (LB) medium (Hafnia alvei 4597 [2])
1 | NCC(=O)[O-].NCC(=O)[O-].[Zn+2] [Zinc bisglycinate, zinc; 2-aminoacetate] | no significant development inhibition | 
2 | O=C([O-])c1ccccn1.O=C([O-])c1ccccn1.O=C([O-])c1ccccn1.[Cr+3] [Chromium picolinate, chromium (3+); pyridine-2-carboxylate] |  | same turbidity as the control
